In brackets after ≈: the same amount, converted by molar mass. Where two headings read alike, the source gives them in different places.
Assays:
P. aeruginosa 854 [1] = test: microbe, parasite or virus in culture; format: cell-based, Pseudomonas aeruginosa
Description: (§1) Activity of SET-M33 and antibiotics was evaluated on six well characterized clinical strains. The strains were selected according to their resistance phenotypes and genotypes.
(§2) MICs were determined using a standard broth microdilution assay according to the guidelines of the Clinical and Laboratory Standards Institute.

K. pneumoniae 044-R [2] = test: Antimicrobial activity in combination, checkerboard method; format: cell-based, Klebsiella pneumoniae; conditions: for MIC in combination, ATB: antimicrobial agent in combination with SET-M33
Description: as §1
(§3) Antimicrobial activity in combination was evaluated, in duplicate for each of the six strains, with the checkerboard method using cation-adjusted Mueller-Hinton broth (MHB) in 96-well microtiter plates (Sarstedt, Inc., Newton, N.C.). Assays were performed using a final bacterial inoculum of 5×10^4 CFU/well in a final volume of 100 μl. Results were recorded after 20 h of incubation at 35° C. The total fractional inhibitory concentration (ΣFIC) for each antibiotic combination was calculated according to EUCAST definitive document E.Def 1.2 [16] as follows: ΣFIC equals FIC of agent A plus FIC of agent B, where the FIC of agent A or B is the MIC of agent A or B in the presence of the other divided by the MIC of agent A or B alone. Results were interpreted according to the following definition: a ΣFIC of ≤0.5 indicated synergism, a ΣFIC of >0.5 to 1 indicated additivity, a ΣFIC of >1 to <2 indicated indifference, and a ΣFIC of ≥2 antagonism.

K. pneumoniae KKBO-4 [3] = test: as above; format: cell-based, Klebsiella pneumoniae; conditions: for MIC in combination, ATB: antimicrobial agent in combination with SET-M33
Description: as §1, §3

P. aeruginosa 854 [4] = test: as above; format: cell-based, Pseudomonas aeruginosa; conditions: for MIC in combination, ATB: antimicrobial agent in combination with SET-M33
Description: as §1, §3

P. aeruginosa AV65 [5] = test: as above; format: cell-based, Pseudomonas aeruginosa; conditions: for MIC in combination, ATB: antimicrobial agent in combination with SET-M33
Description: as §1, §3

A. baumannii N50 [6] = test: as above; format: cell-based, Acinetobacter baumannii; conditions: for MIC in combination, ATB: antimicrobial agent in combination with SET-M33
Description: as §1, §3

A. baumannii VA566/00 [7] = test: as above; format: cell-based, Acinetobacter baumannii; conditions: for MIC in combination, ATB: antimicrobial agent in combination with SET-M33
Description: as §1, §3

[8] = tested on: 6 MDR/XDR Gram-negative strains; format: cell-based
Description: as §1, §2

[9] = tested on: 6 MDR/XDR Gram-negative strains; test: Checkerboard combination testing, summary over the six strains; format: cell-based
Description: as §1, §3

A. baumannii VA566/00 [10] = test: MIC, standard broth microdilution; format: cell-based; conditions: Acinetobacter baumannii
Description: as §1, §2

P. aeruginosa AV65 [11] = test: MIC, standard broth microdilution; format: cell-based; conditions: Pseudomonas aeruginosa
Description: as §1, §2

A. baumannii N50 [12] = test: microbe, parasite or virus in culture; format: cell-based; conditions: Acinetobacter baumannii
Description: as §1, §2

K. pneumoniae 044-R [13] = test: microbe, parasite or virus in culture; format: cell-based; conditions: Klebsiella pneumoniae; agent alone; K. pneumoniae 044-R (XDR, KPC, colR)
Description: as §1, §2

K. pneumoniae KKBO-4 [14] = test: microbe, parasite or virus in culture; format: cell-based; conditions: Klebsiella pneumoniae, KKBO4
Description: as §1, §2

[15] = SET-M33 in combination with aztreonam
[16] = SET-M33 in combination with meropenem
[17] = SET-M33 in combination with rifampin
[18] = SET-M33 in combination with tobramycin
[19] = agent alone, K. pneumoniae KKBO-4 (XDR, KPC, colR), read-out: MIC
[20] = Pseudomonas aeruginosa, agent alone, P. aeruginosa 854 (XDR, VIM-1), read-out: MIC
[21] = agent alone, A. baumannii N50 (MDR, OXA-24, colR), read-out: MIC

CC[C@H](C)[C@H](NC(=O)[C@H](CCCCN)NC(=O)[C@@H](N)CCCCN)C(=O)N[C@@H](CCCNC(=N)N)C(=O)N[C@H](C(=O)N[C@@H](CCCNC(=N)N)C(=O)N[C@@H](CC(C)C)C(=O)N[C@@H](CO)C(=O)N[C@@H](C)C(=O)O)C(C)C (stereo in doubt) [SET-M33]
MIC (P. aeruginosa 854 [1]; 854): 16 µg/mL (≈ 14.9 µM) | MIC in combination, SET-M33 (K. pneumoniae 044-R [2]; [15]): 8 µg/mL | MIC in combination, SET-M33 (K. pneumoniae 044-R [2]; [16]): 8 µg/mL | MIC in combination, SET-M33 (K. pneumoniae 044-R [2]; [17]): 4 µg/mL | MIC in combination, SET-M33 (K. pneumoniae 044-R [2]; [18]): 16 µg/mL | MIC in combination, SET-M33 (K. pneumoniae KKBO-4 [3]; [15]): 8 µg/mL | MIC in combination, SET-M33 (K. pneumoniae KKBO-4 [3]; [16]): 8 µg/mL | MIC in combination, SET-M33 (K. pneumoniae KKBO-4 [3]; [17]): 4 µg/mL | MIC in combination, SET-M33 (K. pneumoniae KKBO-4 [3]; [18]): 16 µg/mL | MIC in combination, SET-M33 (P. aeruginosa 854 [4]; [15]): 8 µg/mL | MIC in combination, SET-M33 (P. aeruginosa 854 [4]; [16]): 8 µg/mL | MIC in combination, SET-M33 (P. aeruginosa 854 [4]; [17]): 8 µg/mL | MIC in combination, SET-M33 (P. aeruginosa 854 [4]; [18]): 8 µg/mL | MIC in combination, SET-M33 (P. aeruginosa AV65 [5]; [15]): 8 µg/mL | MIC in combination, SET-M33 (P. aeruginosa AV65 [5]; [16]): 4 µg/mL | MIC in combination, SET-M33 (P. aeruginosa AV65 [5]; [17]): 8 µg/mL | MIC in combination, SET-M33 (P. aeruginosa AV65 [5]; [18]): 2 µg/mL | MIC in combination, SET-M33 (A. baumannii N50 [6]; [15]): 4 µg/mL | MIC in combination, SET-M33 (A. baumannii N50 [6]; [16]): 4 µg/mL | MIC in combination, SET-M33 (A. baumannii N50 [6]; [17]): 8 µg/mL | MIC in combination, SET-M33 (A. baumannii N50 [6]; [18]): 8 µg/mL | MIC in combination, SET-M33 (A. baumannii VA566/00 [7]; [15]): 4 µg/mL | MIC in combination, SET-M33 (A. baumannii VA566/00 [7]; [16]): 4 µg/mL | MIC in combination, SET-M33 (A. baumannii VA566/00 [7]; [17]): 4 µg/mL | MIC in combination, SET-M33 (A. baumannii VA566/00 [7]; [18]): 8 µg/mL | MIC values [8]: 4 to 32 µg/mL | interaction in combination (ΣFIC interpretation) ([9]; SET-M33 in combination with aztreonam, colistin-resistant strains of K. pneumoniae): synergistic activity | interaction in combination (ΣFIC interpretation) ([9]; SET-M33 in combination with ciprofloxacin, data not shown): Additivity | interaction in combination (ΣFIC interpretation) ([9]; SET-M33 in combination with rifampin, colistin-resistant strains of K. pneumoniae): synergistic activity | interaction in combination (ΣFIC interpretation) ([9]; SET-M33 in combination with tobramycin, one of the A. baumannii strains): Synergy | effect of combination on SET-M33 MIC values ([9]; when a synergistic effect was present, e.g. with rifampin, aztreonam and tobramycin): moderately affected | effect of combination on SET-M33 MIC values ([9]; when the effect was additive or indifferent): not affected

C[C@H]1[C@H](NC(=O)/C(=N\OC(C)(C)C(=O)O)c2csc(N)n2)C(=O)N1S(=O)(=O)O [aztreonam]
MIC (P. aeruginosa 854 [1]; Pseudomonas aeruginosa, 854): 128 µg/mL (≈ 294 µM) | MIC (A. baumannii VA566/00 [10]; VA566/00): 512 µg/mL (≈ 1180 µM) | MIC (P. aeruginosa AV65 [11]; agent alone, P. aeruginosa AV65 (XDR, IMP-13), read-out: MIC): 32 µg/mL (≈ 73.5 µM) | MIC (A. baumannii N50 [12]; N50): 128 µg/mL (≈ 294 µM) | MIC in combination, ATB (P. aeruginosa 854 [4]): 64 µg/mL | MIC in combination, ATB (P. aeruginosa AV65 [5]): 1 µg/mL | MIC in combination, ATB (A. baumannii N50 [6]): 32 µg/mL | MIC in combination, ATB (A. baumannii VA566/00 [7]): 16 µg/mL

C[C@@H](O)[C@H]1C(=O)N2C(C(=O)O)=C(S[C@@H]3CN[C@H](C(=O)N(C)C)C3)[C@H](C)[C@H]12 [meropenem]
MIC (P. aeruginosa 854 [1]; Pseudomonas aeruginosa, 854): 512 µg/mL (≈ 1340 µM) | MIC (A. baumannii VA566/00 [10]; VA566/00): 512 µg/mL (≈ 1340 µM) | MIC (P. aeruginosa AV65 [11]; AV65): 256 µg/mL (≈ 668 µM) | MIC (A. baumannii N50 [12]; N50): 256 µg/mL (≈ 668 µM) | MIC (K. pneumoniae 044-R [13]): 64 µg/mL (≈ 167 µM) | MIC (K. pneumoniae KKBO-4 [14]; [19]): 64 µg/mL (≈ 167 µM) | MIC in combination, ATB (K. pneumoniae 044-R [2]): 32 µg/mL | MIC in combination, ATB (K. pneumoniae KKBO-4 [3]): 32 µg/mL | MIC in combination, ATB (P. aeruginosa 854 [4]): 16 µg/mL | MIC in combination, ATB (P. aeruginosa AV65 [5]): 64 µg/mL | MIC in combination, ATB (A. baumannii N50 [6]): 64 µg/mL | MIC in combination, ATB (A. baumannii VA566/00 [7]): 4 µg/mL

CO[C@H]1/C=C/O[C@@]2(C)Oc3c(C)c(O)c4c(O)c(c(/C=N/N5CCN(C)CC5)c(O)c4c3C2=O)NC(=O)/C(C)=C\C=C\[C@H](C)[C@H](O)[C@@H](C)[C@@H](O)[C@@H](C)[C@H](OC(C)=O)[C@@H]1C [rifampin]
MIC (P. aeruginosa 854 [1]; [20]): 32 µg/mL (≈ 38.9 µM) | MIC (A. baumannii VA566/00 [10]; VA566/00): 256 µg/mL (≈ 311 µM) | MIC (P. aeruginosa AV65 [11]; AV65): 128 µg/mL (≈ 156 µM) | MIC (A. baumannii N50 [12]; [21]): 64 µg/mL (≈ 77.8 µM) | MIC (K. pneumoniae 044-R [13]): 64 µg/mL (≈ 77.8 µM) | MIC (K. pneumoniae KKBO-4 [14]): 128 µg/mL (≈ 156 µM) | MIC in combination, ATB (K. pneumoniae 044-R [2]): 16 µg/mL | MIC in combination, ATB (K. pneumoniae KKBO-4 [3]): 32 µg/mL | MIC in combination, ATB (P. aeruginosa 854 [4]): 8 µg/mL | MIC in combination, ATB (P. aeruginosa AV65 [5]): 64 µg/mL | MIC in combination, ATB (A. baumannii N50 [6]): 4 µg/mL | MIC in combination, ATB (A. baumannii VA566/00 [7]): 2 µg/mL

NC[C@H]1O[C@H](O[C@H]2[C@H](O)[C@@H](O[C@H]3O[C@H](CO)[C@@H](O)[C@H](N)[C@H]3O)[C@H](N)C[C@@H]2N)[C@H](N)C[C@@H]1O [tobramycin]
MIC (P. aeruginosa 854 [1]; [20]): 256 µg/mL (≈ 548 µM) | MIC (A. baumannii VA566/00 [10]; agent alone, A. baumannii VA566/00 (MDR, OXA-24), read-out: MIC): 16 µg/mL (≈ 34.2 µM) | MIC (P. aeruginosa AV65 [11]; AV65): 128 µg/mL (≈ 274 µM) | MIC (A. baumannii N50 [12]; [21]): 8 µg/mL (≈ 17.1 µM) | MIC (K. pneumoniae 044-R [13]): 32 µg/mL (≈ 68.4 µM) | MIC (K. pneumoniae KKBO-4 [14]; [19]): 32 µg/mL (≈ 68.4 µM) | MIC in combination, ATB (K. pneumoniae 044-R [2]): 16 µg/mL | MIC in combination, ATB (K. pneumoniae KKBO-4 [3]): 16 µg/mL | MIC in combination, ATB (P. aeruginosa 854 [4]): 256 µg/mL | MIC in combination, ATB (P. aeruginosa AV65 [5]): 128 µg/mL | MIC in combination, ATB (A. baumannii N50 [6]): 0.5 µg/mL | MIC in combination, ATB (A. baumannii VA566/00 [7]): 4 µg/mL

Source: patent US20190388494A1, “THERAPEUTIC COMBINATIONS FOR THE TREATMENT OF BACTERIAL INFECTIONS” (SETLANCE S.R.L., priority 2017, published 2019)
